Source: patent publication US20250214942A1, “INHIBITORS OF RECEPTOR INTERACTING PROTEIN KINASE I FOR THE TREATMENT OF DISEASE” (Board of Regents, The University of Texas System, priority 2019, published 2025)
Read-outs that look alike come from different tables or passages of the source.

Tested on: human monocytic cell line U937
Experiment: Human U937 cellular necroptosis assay (TNFalpha + z-VAD-FMK, Cell Titer-Glo viability)
Assay type: cell-based
Settings: U937 cells, 25 ng/mL human TNFalpha + 25 μM z-VAD-FMK, read-out: hU937 Avg IC50
Procedure, shortened: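 Readout is CellTiter-Glo 2.0 luminescence after 22 h at 37° C with compound, in cells triggered by human TNFalpha (25 ng/mL) and z-VAD-FMK (25 μM) in phenol red-free RPMI/10% FBS. Values are run-averaged IC50s from a four-parameter logistic curve.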

Question: How did the IC50 (Homo sapiens, U-937, 22 h) turn out when `C[C@H](NC(=O)C12CC(COc3cnc(C#N)cn3)(C1)C2)c1cc(F)ccc1F` [Example 297, (S)-3-(((5-cyanopyrazin-2-yl)-oxy)methyl)-N-(1-(2,5-difluorophenyl)ethyl)bicyclo-[1.1.1]pentane-1-carboxamide] was run?
Answer: The IC50 was 6060 nM.

Question: How did the IC50 (Homo sapiens, U-937, 22 h) turn out when `N#Cc1cnc(OCC23CC(C(=O)NCc4cc(F)ccc4F)(C2)C3)cn1` [Example 298, 3-(((5-cyanopyrazin-2-yl)oxy)-methyl)-N-(2,5-difluoro-benzyl)bicyclo[1.1.1]pentane-1-carboxamide] was run?
Answer: Its IC50 is 6700 nM.

Question: For `CN(C(=O)C12CC(Cn3ncc4cc(C#N)ccc43)(C1)C2)c1ccccc1Cl` [Example 299, N-(2-chlorophenyl)-3-((5-cyano-1H-indazol-1-yl)-methyl)-N-methylbicyclo-[1.1.1]pentane-1-carboxamide], which IC50 (Homo sapiens, U-937, 22 h) is on record?
Answer: The IC50 was 7010 nM.

Question: `N#Cc1cnc(OCC23CC(C(=O)NCc4ccccc4F)(C2)C3)cn1` [Example 300, 3-(((5-cyanopyrazin-2-yl)-oxy)methyl)-N-(2-fluoro-benzyl)bicyclo[1.1.1]pentane-1-carboxamide] was tested. Which IC50 (22 h) did it give?
Answer: Its IC50 is 7420 nM.

Question: Which IC50 (Homo sapiens, U-937, 22 h) does the source give for `CC(c1cc(F)ccc1F)N(C)C(=O)C12CC(COc3cnc(C#N)cn3)(C1)C2` (stereo not shown) [Example 301, 3-(((5-cyanopyrazin-2-yl)oxy)-methyl)-N-(1-(2,5-difluoro-phenyl)ethyl)-N-methyl-bicyclo[1.1.1]pentane-1-carboxamide] here?
Answer: Its IC50 is 7740 nM.

Question: How did the IC50 (Homo sapiens, U-937, 22 h) turn out when `CC1CCN(C(=O)C23CC(COc4cnc(C#N)cn4)(C2)C3)C1c1ccccc1` (stereo not shown) [Example 302, 5-((3-(3-methyl-2-phenyl-pyrrolidine-1-carbonyl)-bicyclo[1.1.1]pentan-1-yl)-methoxy)pyrazine-2-carbonitrile] was run?
Answer: The IC50 was 9870 nM.

Question: `N#Cc1ccc(OCC23CC(C(=O)N4N=CCC4c4ncccc4F)(C2)C3)nc1` (stereo not shown) [Example 303, 6-((3-(5-(3-fluoropyridin-2-yl)-4,5-dihydro-1H-pyrazole-1-carbonyl)bicyclo[1.1.1]-pentan-1-yl)methoxy)-nicotinonitrile] was tested. Which IC50 (Homo sapiens, U-937, 22 h) did it give?
Answer: The IC50 was 500 nM.

Question: For `Cc1cc(F)c(C2CC=NN2C(=O)C23CC(COc4cnc(C#N)cn4)(C2)C3)c(F)c1` (stereo not shown) [Example 304, 5-((3-(5-(2,6-difluoro-4-methylphenyl)-4,5-dihydro-1H-pyrazole-1-carbonyl)-bicyclo[1.1.1]pentan-1-yl)-methoxy)pyrazine-2-carbonitrile], which IC50 (Homo sapiens, U-937, 22 h) is on record?
Answer: Its IC50 is 6 nM.

Question: How did the IC50 (Homo sapiens, U-937, 22 h) turn out when `Cc1cc(F)c(C2CC=NN2C(=O)C23CC(COc4ccc(C#N)cn4)(C2)C3)cc1F` (stereo not shown) [Example 305, 6-((3-(5-(2,5-difluoro-4-methylphenyl)-4,5-dihydro-1H-pyrazole-1-carbonyl)-bicyclo[1.1.1]pentan-1-yl)-methoxy)nicotinonitrile] was run?
Answer: The IC50 was 6.5 nM.

Question: `N#Cc1cnc(OCC23CC(C(=O)N4N=CCC4c4cccc(F)c4F)(C2)C3)cn1` (stereo not shown) [Example 306, 5-((3-(5-(2,3-difluorophenyl)-4,5-dihydro-1H-pyrazole-1-carbonyl)bicyclo[1.1.1]pentan-1-yl)methoxy)pyrazine-2-carbonitrile] was tested. Which IC50 (Homo sapiens, U-937, 22 h) did it give?
Answer: The IC50 was 6.6 nM.

Question: For `N#Cc1cnc(OCC23CC(C(=O)N4N=CCC4c4c(F)cccc4F)(C2)C3)cn1` (stereo not shown) [Example 307, 5-((3-(5-(2,6-difluorophenyl)-4,5-dihydro-1H-pyrazole-1-carbonyl)bicyclo[1.1.1]pentan-1-yl)methoxy)pyrazine-2-carbonitrile], which IC50 (Homo sapiens, U-937, 22 h) is on record?
Answer: Its IC50 is 8.7 nM.

Question: With `N#Cc1ccc(OCC23CC(C(=O)N4N=CCC4c4cc(F)ccc4F)(C2)C3)nc1` (stereo not shown) [Example 308, 6-((3-(5-(2,5-difluorophenyl)-4,5-dihydro-1H-pyrazole-1-carbonyl)bicyclo[1.1.1]pentan-1-yl)methoxy)nicotinonitrile] as the compound, how does the IC50 (Homo sapiens, U-937, 22 h) read?
Answer: The IC50 was 11 nM.

Question: How did the IC50 (Homo sapiens, U-937, 22 h) turn out when `Cc1ccc(C2CC=NN2C(=O)C23CC(Cn4ncc5cc(C#N)ccc54)(C2)C3)cc1` (stereo not shown) [Example 309, 1-((3-(5-(p-tolyl)-4,5-dihydro-1H-pyrazole-1-carbonyl)-bicyclo[1.1.1]pentan-1-yl)-methyl)-1H-indazole-5-carbonitrile] was run?
Answer: The IC50 was 13 nM.
